Test results from PubChem BioAssay (NCI).
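Interpolation was linear, between the two tested concentrations surrounding the appropriate level; five concentrations were tested over 48 hours in 96-well plates. GI50 = concentration required for 50% inhibition of growth. TGI denotes the concentration required for complete inhibition of growth.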

Assays:
Experiment in all cases: inhibition of tumour cell growth, NCI panel, 48 h
[1] = tested on: A498 renal
[2] = tested on: ACHN renal
[3] = tested on: HCT-15 colon
[4] = tested on: HS 578T breast
[5] = tested on: KM12 colon
[6] = tested on: MDA-MB-435
[7] = tested on: MOLT-4 leukemia
[8] = tested on: SF-268 CNS
[9] = tested on: TK-10 renal
[10] = tested on: U251 CNS

| SMILES | GI50 [1] | TGI [1] | GI50 [2] | TGI [2] | GI50 [3] | TGI [3] | GI50 [4] | TGI [4] | GI50 [5] | TGI [5] | GI50 [6] | TGI [6] | GI50 [7] | TGI [7] | GI50 [8] | TGI [8] | GI50 [9] | TGI [9] | GI50 [10] | TGI [10] |
| --- | --- | --- | --- | --- | --- | --- | --- | --- | --- | --- | --- | --- | --- | --- | --- | --- | --- | --- | --- | --- |
| CC#CC(=O)N1CCC[C@H]1c1nc(-c2ccc(C(=O)Nc3ccccn3)cc2)c2c(N)nccn12 | 26.4 µM | > 81.9 µM | 23.8 µM | > 100 µM | > 72.3 µM | > 100 µM | > 72.5 µM | > 100 µM | > 72.2 µM | > 100 µM | 44.1 µM | > 100 µM | 44.3 µM | > 100 µM | 52.7 µM | > 100 µM | 21.1 µM | > 100 µM | > 92.4 µM | > 100 µM |
| C[C@H]1[C@@H](OCC(CO[C@H]2O[C@@H]3O[C@@]4(C)CC[C@H]5[C@H](C)CC[C@@H]([C@H]2C)[C@@]35OO4)=NOCC(=O)O)OC2O[C@@]3(C)CC[C@H]4[C@H](C)CC[C@@H]1[C@@]24OO3 (some centres undefined) | 1.76 µM | 19.6 µM | 0.188 µM | 14.5 µM | < 0.01 µM | 0.891 µM | 0.719 µM | 22.4 µM | < 0.0166 µM | 13 µM | 0.02 µM | 5.25 µM | < 0.01 µM | 8.61 µM | < 0.0231 µM | 0.889 µM | 0.0408 µM | 4.57 µM | < 0.0114 µM | 14 µM |
| O=C(NNS(=O)(=O)c1cc(C(F)(F)F)cc(C(F)(F)F)c1)c1cnn(-c2ccc(Cl)cc2)c1C(F)(F)F | 14.1 µM | 29.3 µM | 21.6 µM | 51.2 µM | 16 µM | 37.5 µM | 18.4 µM | 44.6 µM | 18.5 µM | 39.9 µM | 17 µM | 33.2 µM | 19.9 µM | 52.3 µM | 21.6 µM | 52.6 µM | 24.3 µM | 54.7 µM | 17.3 µM | 35.3 µM |
| O=c1[nH]c(-c2ccc(C(F)(F)F)cc2)nc2c1CSCC2 | 22.9 µM | 97.3 µM | 32.9 µM | > 100 µM | > 100 µM | > 100 µM | 45.8 µM | > 100 µM | > 100 µM | > 100 µM | > 100 µM | > 100 µM | > 100 µM | > 100 µM | 53.2 µM | > 100 µM | 23.8 µM | 66.8 µM | 17.9 µM | > 89.6 µM |
| NC(CSC(c1ccccc1)(c1ccccc1)c1ccc2ccccc2c1)C(=O)O (centres undefined) | 0.0529 µM | 3.79 µM | 0.911 µM | 30.8 µM | 0.175 µM | 23.7 µM | 0.0267 µM | 0.0832 µM | 0.0804 µM | 3.21 µM | 0.018 µM | 0.0363 µM | 0.29 µM | > 33.8 µM | 0.0517 µM | 13.7 µM | 0.524 µM | 23.6 µM | 0.0408 µM | 12.1 µM |
| O=[As](O)(O)c1ccc(Cc2ccc([As](=O)(O)O)cc2)cc1 |  | 3.96 µM |  | 2.31 µM |  | 3.21 µM |  | 12.4 µM |  | 5.44 µM |  | 2.37 µM |  | 4.26 µM |  | 1.85 µM |  | 1.27 µM |  | 1.51 µM |
| C=C(C)C1/C=C(/C(C)C)CC[C@]2(C)O[C@@H]2CC[C@H](C)CC1=O (some centres undefined) | 83.4 µM | > 100 µM | 72.4 µM | > 100 µM | > 100 µM | > 100 µM | 31.7 µM | > 100 µM | 58.1 µM | > 100 µM | 39 µM | > 100 µM | > 100 µM | > 100 µM | > 100 µM | > 100 µM | 66.6 µM | > 100 µM | 54.7 µM | > 100 µM |
| Cn1c(O)c(C(=O)Nc2ccc([N+](=O)[O-])cc2)c(=O)n(C)c1=S |  | 2.17 µM |  | > 27.3 µM |  | 7.02 µM |  | 5.85 µM |  | 7.05 µM |  | 4.95 µM |  | > 100 µM |  | 10.7 µM |  | 10.7 µM |  | 7.67 µM |
| COc1ccc(/C=C(\C#N)c2cc3ccccc3n2C)cc1 | 0.071 µM | 0.675 µM | 0.654 µM | > 100 µM | 0.372 µM | > 100 µM | 0.352 µM | > 100 µM | 0.503 µM | > 100 µM | 0.153 µM | 0.403 µM | 0.448 µM | > 40.3 µM | 2.52 µM | > 100 µM | 4.51 µM | > 100 µM | 0.493 µM | > 100 µM |
| CCNCC(O)c1ccc(N)c([N+](=O)[O-])c1 (centres undefined) |  | > 100 µM |  | > 100 µM |  | > 100 µM |  | > 100 µM |  |  |  | > 100 µM |  | > 100 µM |  | > 100 µM |  | > 100 µM |  | > 100 µM |
| C[C@@H]1CC[C@@]2(OC1)O[C@H]1C[C@H]3[C@@H]4CC=C5C[C@@H](O[C@@H]6O[C@H](CO)[C@@H](O[C@@H]7O[C@@H](CO)[C@H](O)[C@H]7O)[C@H](O)[C@H]6O[C@@H]6O[C@@H](C)[C@H](O)[C@@H](O)[C@H]6O)CC[C@]5(C)[C@H]4CC[C@]3(C)[C@H]1[C@@H]2C | 1.28 µM | 2.55 µM |  | 2.12 µM | 1.12 µM | 2.46 µM |  | 2.49 µM |  | 2.15 µM | 1.29 µM | 2.58 µM |  | 2.26 µM | 1.21 µM | 2.47 µM |  | 2.19 µM | 1.01 µM | 2.17 µM |
| CCSC1=CC(=O)c2ccccc2C1=O | 16.4 µM | 41.2 µM | 1.27 µM | 2.65 µM | 13.9 µM | 31.4 µM | 13.8 µM | > 69.3 µM | 11 µM | 25.4 µM | 2.69 µM | 7.02 µM | 0.744 µM | 2.39 µM | 4.98 µM | 17.1 µM | 2.5 µM | 4.65 µM | 5.81 µM | 16.5 µM |
| CC(=O)OC1CCC2(C)C(=CC(C3C=C4CC(OC(C)=O)CCC4(C)C4=C3C3CC5OC6(CCC(C)CO6)C(C)C5C3(C)CC4)C3=C2CCC2(C)C3CC3OC4(CCC(C)CO4)C(C)C32)C1 (centres undefined) |  | 30.8 µM |  | 29.2 µM |  | 28.4 µM |  | 17 µM |  | 35.7 µM |  | 27.1 µM |  | 4.7 µM |  | 23.5 µM |  | 27.6 µM |  | 27.8 µM |
